Data reported in publication PMC4254589 (Bioorganic & medicinal chemistry, 2014).
Bridge positions count the residues as written; N and C are the ends. Square brackets hold non-standard residues; d marks the D form. Peptide text beside a SMILES is read from it. d2Nal = N[C@H](Cc1ccc2ccccc2c1)C(=O)O; Nle = CCCC[C@H](N)C(=O)O

target: T1, hMC4R (Homo sapiens, UniProt P32245); test: not given; conditions: binding to hMC4R, MSH(7) ligands; cited from earlier work
T1 sequence (P32245 whole entry): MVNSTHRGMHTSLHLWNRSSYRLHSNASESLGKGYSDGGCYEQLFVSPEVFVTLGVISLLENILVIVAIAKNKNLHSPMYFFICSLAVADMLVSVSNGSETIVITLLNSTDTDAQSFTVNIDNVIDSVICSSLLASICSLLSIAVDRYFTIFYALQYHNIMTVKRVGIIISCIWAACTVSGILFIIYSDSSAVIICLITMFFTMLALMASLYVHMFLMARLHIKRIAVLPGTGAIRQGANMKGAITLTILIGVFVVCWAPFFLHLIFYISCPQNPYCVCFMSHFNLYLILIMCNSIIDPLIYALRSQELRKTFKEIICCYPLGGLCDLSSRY

Compared with “Ac-(Pro-Gly)6- MSH(7)-NH2 (Ac-PGPGPGPGPGPGS[Nle]EH[dF]RW-NH2; SMILES CCCC[C@H](NC(=O)[C@H](CO)NC(=O)CNC(=O)[C@@H]1CCCN1C(=O)CNC(=O)[C@@H]1CCCN1C(=O)CNC(=O)[C@@H]1CCCN1C(=O)CNC(=O)[C@@H]1CCCN1C(=O)CNC(=O)[C@@H]1CCCN1C(=O)CNC(=O)[C@@H]1CCCN1C(C)=O)C(=O)N[C@@H](CCC(=O)O)C(=O)N[C@@H](Cc1c[nH]cn1)C(=O)N[C@H](Cc1ccccc1)C(=O)N[C@@H](CCCNC(=N)N)C(=O)N[C@@H](Cc1c[nH]c2ccccc12)C(N)=O) [compound 19]”, “Ac-(Pro-Gly)9- MSH(7)-NH2 (Ac-PGPGPGPGPGPGPGPGPGS[Nle]EH[dF]RW-NH2; SMILES CCCC[C@H](NC(=O)[C@H](CO)NC(=O)CNC(=O)[C@@H]1CCCN1C(=O)CNC(=O)[C@@H]1CCCN1C(=O)CNC(=O)[C@@H]1CCCN1C(=O)CNC(=O)[C@@H]1CCCN1C(=O)CNC(=O)[C@@H]1CCCN1C(=O)CNC(=O)[C@@H]1CCCN1C(=O)CNC(=O)[C@@H]1CCCN1C(=O)CNC(=O)[C@@H]1CCCN1C(=O)CNC(=O)[C@@H]1CCCN1C(C)=O)C(=O)N[C@@H](CCC(=O)O)C(=O)N[C@@H](Cc1c[nH]cn1)C(=O)N[C@H](Cc1ccccc1)C(=O)N[C@@H](CCCNC(=N)N)C(=O)N[C@@H](Cc1c[nH]c2ccccc12)C(N)=O) [compound 20]” is 2.9-fold higher in EC50: 82 ± 12 nM for the first, 236 ± 24 nM for the second. The first is the more potent here.

First: Ac-(Pro-Gly)12- MSH(7)-NH2 (Ac-PGPGPGPGPGPGPGPGPGPGPGPGS[Nle]EH[dF]RW-NH2; SMILES CCCC[C@H](NC(=O)[C@H](CO)NC(=O)CNC(=O)[C@@H]1CCCN1C(=O)CNC(=O)[C@@H]1CCCN1C(=O)CNC(=O)[C@@H]1CCCN1C(=O)CNC(=O)[C@@H]1CCCN1C(=O)CNC(=O)[C@@H]1CCCN1C(=O)CNC(=O)[C@@H]1CCCN1C(=O)CNC(=O)[C@@H]1CCCN1C(=O)CNC(=O)[C@@H]1CCCN1C(=O)CNC(=O)[C@@H]1CCCN1C(=O)CNC(=O)[C@@H]1CCCN1C(=O)CNC(=O)[C@@H]1CCCN1C(=O)CNC(=O)[C@@H]1CCCN1C(C)=O)C(=O)N[C@@H](CCC(=O)O)C(=O)N[C@@H](Cc1c[nH]cn1)C(=O)N[C@H](Cc1ccccc1)C(=O)N[C@@H](CCCNC(=N)N)C(=O)N[C@@H](Cc1c[nH]c2ccccc12)C(N)=O) [compound 21]
Second: Ac-MSH(7)-(Pro-Gly)6- MSH(7)-NH2 (Ac-S[Nle]EH[dF]RWPGPGPGPGPGPGS[Nle]EH[dF]RW-NH2; SMILES CCCC[C@H](NC(=O)[C@H](CO)NC(C)=O)C(=O)N[C@@H](CCC(=O)O)C(=O)N[C@@H](Cc1c[nH]cn1)C(=O)N[C@H](Cc1ccccc1)C(=O)N[C@@H](CCCNC(=N)N)C(=O)N[C@@H](Cc1c[nH]c2ccccc12)C(=O)N1CCC[C@H]1C(=O)NCC(=O)N1CCC[C@H]1C(=O)NCC(=O)N1CCC[C@H]1C(=O)NCC(=O)N1CCC[C@H]1C(=O)NCC(=O)N1CCC[C@H]1C(=O)NCC(=O)N1CCC[C@H]1C(=O)NCC(=O)N[C@@H](CO)C(=O)N[C@@H](CCCC)C(=O)N[C@@H](CCC(=O)O)C(=O)N[C@@H](Cc1c[nH]cn1)C(=O)N[C@H](Cc1ccccc1)C(=O)N[C@@H](CCCNC(=N)N)C(=O)N[C@@H](Cc1c[nH]c2ccccc12)C(N)=O) [compound 22]
The EC50 of the first is 17-fold higher: 188 ± 25 nM for the first, 11 ± 2 nM for the second.

target: T1, hMC4R; test: Lanthanide-based competitive binding assay; conditions: not given

`CCCC[C@H](NC(=O)[C@H](CO)NC(C)=O)C(=O)N[C@@H](CCC(=O)O)C(=O)N[C@@H](Cc1c[nH]cn1)C(=O)N[C@H](Cc1ccccc1)C(=O)N[C@@H](CCCNC(=N)N)C(=O)N[C@@H](Cc1c[nH]c2ccccc12)C(N)=O` [MSH(7), Ac-Ser-Nle-Glu-His-D-Phe-Arg-Trp-NH2] (Ac-S[Nle]EH[dF]RW-NH2) gave an EC50 of ~50 nM.

same assay, conditions: SEM

`CCCC[C@H](NC(=O)CNC(=O)[C@@H]1CCCN1C(=O)CNC(=O)[C@@H]1CCCN1C(=O)CNC(=O)[C@@H]1CCCN1C(=O)CNC(=O)[C@@H]1CCCN1C(=O)CNC(=O)[C@@H]1CCCN1C(=O)CNC(=O)[C@@H]1CCCN1C(=O)CNC(=O)[C@@H]1CCCN1C(=O)CNC(=O)[C@@H]1CCCN1C(=O)CNC(=O)[C@@H]1CCCN1C(=O)CNC(=O)[C@@H]1CCCN1C(=O)CNC(=O)[C@@H]1CCCN1C(=O)CNC(=O)[C@@H]1CCCN1C(=O)[C@H](Cc1c[nH]c2ccccc12)NC(=O)[C@H](CCCNC(=N)N)NC(=O)[C@@H](Cc1ccccc1)NC(=O)[C@H](Cc1c[nH]cn1)NC(=O)[C@H](CCC(=O)O)NC(=O)[C@H](CCCC)NC(=O)[C@H](CO)NC(C)=O)C(=O)N[C@H]1CC(=O)NCCCC[C@@H](C(N)=O)NC(=O)[C@H](Cc2c[nH]c3ccccc23)NC(=O)[C@H](CCCNC(=N)N)NC(=O)[C@@H](Cc2ccc3ccccc3c2)NC(=O)[C@H](Cc2c[nH]cn2)NC1=O` [compound 15, Ac-MSH(7)-(Pro-Gly)12-SHU9119-NH2] (Ac-S[Nle]EH[dF]RWPGPGPGPGPGPGPGPGPGPGPGPG[Nle]DH[d2Nal]RWK-NH2; lactam 33-38) and `CCCC[C@H](NC(=O)COCC(=O)NCCCOCCOCCOCCCNC(=O)CNC(=O)[C@@H]1CCCN1C(=O)CNC(=O)[C@@H]1CCCN1C(=O)CNC(=O)[C@@H]1CCCN1C(=O)COCC(=O)NCCCOCCOCCOCCCNC(=O)[C@H](Cc1c[nH]c2ccccc12)NC(=O)[C@H](CCCNC(=N)N)NC(=O)[C@@H](Cc1ccccc1)NC(=O)[C@H](Cc1c[nH]cn1)NC(=O)[C@H](CCC(=O)O)NC(=O)[C@H](CCCC)NC(=O)[C@H](CO)NC(C)=O)C(=O)N[C@H]1CC(=O)NCCCC[C@@H](C(N)=O)NC(=O)[C@H](Cc2c[nH]c3ccccc23)NC(=O)[C@H](CCCNC(=N)N)NC(=O)[C@@H](Cc2ccc3ccccc3c2)NC(=O)[C@H](Cc2c[nH]cn2)NC1=O` [compound 16, Ac-MSH(7)-PEGO-(Pro-Gly)3-PEGO-SHU9119-NH2] are within 1.5-fold of each other in EC50: 1.58 nM for the first, 1.38 nM for the second.

`CCCC[C@H](NC(=O)COCC(=O)NCCCOCCOCCOCCCNC(=O)[C@H](Cc1c[nH]c2ccccc12)NC(=O)[C@H](CCCNC(=N)N)NC(=O)[C@@H](Cc1ccccc1)NC(=O)[C@H](Cc1c[nH]cn1)NC(=O)[C@H](CCC(=O)O)NC(=O)[C@H](CCCC)NC(=O)[C@H](CO)NC(C)=O)C(=O)N[C@H]1CC(=O)NCCCC[C@@H](C(N)=O)NC(=O)[C@H](Cc2c[nH]c3ccccc23)NC(=O)[C@H](CCCNC(=N)N)NC(=O)[C@@H](Cc2ccc3ccccc3c2)NC(=O)[C@H](Cc2c[nH]cn2)NC1=O` [compound 17, Ac-MSH(7)-PEGO-SHU9119-NH2] and `CCCC[C@H](NC(=O)COCC(=O)NCCCOCCOCCOCCCNC(=O)COCC(=O)NCCCOCCOCCOCCCNC(=O)[C@H](Cc1c[nH]c2ccccc12)NC(=O)[C@H](CCCNC(=N)N)NC(=O)[C@@H](Cc1ccccc1)NC(=O)[C@H](Cc1c[nH]cn1)NC(=O)[C@H](CCC(=O)O)NC(=O)[C@H](CCCC)NC(=O)[C@H](CO)NC(C)=O)C(=O)N[C@H]1CC(=O)NCCCC[C@@H](C(N)=O)NC(=O)[C@H](Cc2c[nH]c3ccccc23)NC(=O)[C@H](CCCNC(=N)N)NC(=O)[C@@H](Cc2ccc3ccccc3c2)NC(=O)[C@H](Cc2c[nH]cn2)NC1=O` [compound 18, Ac-MSH(7)-PEGO-PEGO-SHU9119-NH2] are within 1.5-fold of each other in EC50: 1.86 nM for the first, 1.7 nM for the second.
